Data taken from patent US11524966B1 (Valo Early Discovery, Inc., priority 2017, dated 2022).

Molecular target: T1, USP28 (His-tagged USP28-FL-mammalian) (Homo sapiens, UniProt Q96RU2)
T1 construct: Expression of USP28 (1-1077)-TEV-6*His (pTT5 vector); made in house; host or cells: Expi293f cells (pTT5 vector)
T1 sequence (Q96RU2 1-1077): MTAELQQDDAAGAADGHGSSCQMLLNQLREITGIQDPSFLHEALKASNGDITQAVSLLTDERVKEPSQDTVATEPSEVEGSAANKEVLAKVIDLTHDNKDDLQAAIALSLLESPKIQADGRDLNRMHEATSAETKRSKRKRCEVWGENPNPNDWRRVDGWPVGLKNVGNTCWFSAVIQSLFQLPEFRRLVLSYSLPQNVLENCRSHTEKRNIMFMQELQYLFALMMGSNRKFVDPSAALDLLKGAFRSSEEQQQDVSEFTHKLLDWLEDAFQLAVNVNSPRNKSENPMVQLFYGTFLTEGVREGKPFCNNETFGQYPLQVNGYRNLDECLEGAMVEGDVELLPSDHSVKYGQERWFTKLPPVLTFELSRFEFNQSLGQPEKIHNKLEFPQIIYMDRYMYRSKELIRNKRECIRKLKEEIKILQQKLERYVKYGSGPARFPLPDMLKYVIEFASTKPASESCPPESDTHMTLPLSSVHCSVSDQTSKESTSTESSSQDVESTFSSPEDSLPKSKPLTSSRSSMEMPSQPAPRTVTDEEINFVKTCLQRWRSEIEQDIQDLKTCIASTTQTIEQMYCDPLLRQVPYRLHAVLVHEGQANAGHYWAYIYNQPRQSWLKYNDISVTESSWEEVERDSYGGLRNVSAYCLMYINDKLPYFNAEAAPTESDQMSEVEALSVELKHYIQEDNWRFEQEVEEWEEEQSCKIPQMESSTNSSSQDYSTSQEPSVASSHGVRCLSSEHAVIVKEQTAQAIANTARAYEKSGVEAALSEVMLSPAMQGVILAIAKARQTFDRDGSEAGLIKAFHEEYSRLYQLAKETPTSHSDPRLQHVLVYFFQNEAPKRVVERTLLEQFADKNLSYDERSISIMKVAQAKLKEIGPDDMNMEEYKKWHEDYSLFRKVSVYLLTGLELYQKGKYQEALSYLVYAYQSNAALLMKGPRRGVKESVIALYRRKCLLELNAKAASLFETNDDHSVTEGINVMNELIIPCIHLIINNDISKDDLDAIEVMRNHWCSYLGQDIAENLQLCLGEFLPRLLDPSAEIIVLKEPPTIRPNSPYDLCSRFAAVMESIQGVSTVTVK
Assay: Ubiquitin-Rhodamine 110 Assay for USP28 Activity, Example A-1(a)
Type: biochemical
Settings: Ubiquitin-Rhodamine 110 assay, Example A-1(a); read-out: USP28 A-1(a) IC50 range
Summary of the method: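 Full-length His-tagged USP28 (1-1077, Expi293F-expressed; […]) was preincubated 30 min with compound (25 μM–1.3 nM, 10-point 3-fold) in 20 mM Tris-HCl pH 8.0, 3 mM BME, 0.03% BGG, 0.01% Triton X-100. Ub-Rh110 (25 nM) was then added for 45 min at room temperature, stopped with citric acid, and read by fluorescence (485/535 nm).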

| SMILES | IC50 |
| --- | --- |
| Cc1ccc2c(N)c(C(=O)N[C@H]3COc4cc(N5C[C@H](N)[C@@]6(CCCO6)C5)ccc4C3)sc2n1 [Example 310, 3-amino-N-[(3R)-7-[(5R,9S)-9-amino-1-oxa-7-azaspiro[4.4]nonan-7-yl]-3,4-dihydro-2H-1-benzopyran-3-yl]-6-methylthieno[2,3-b]pyridine-2-carboxamide] | 0.001 to 0.05 µM |
| CO[C@H]1CCN(c2ccc3c(n2)CC[C@H](NC(=O)c2sc4nc(C)ccc4c2N)C3)C[C@@H]1N (single isomer, unassigned) [Example 315] | 0.05 to 0.2 µM |
| Cc1ccc2c(N)c(C(=O)N[C@H]3COc4cc(N5C[C@H]6CCN[C@H]6C5)ccc4C3)sc2n1 [Example 305, N-[(3R)-7-[(3aR,6aR)-octahydropyrrolo[3,4-b]pyrrol-5-yl]-3,4-dihydro-2H-1-benzopyran-3-yl]-3-amino-6-methylthieno[2,3-b]pyridine-2-carboxamide] | 0.001 to 0.05 µM |
| Cc1ccc2c(N)c(C(=O)N[C@H]3COc4cc(N5C[C@@H](F)[C@@H](N)C5)ccc4C3)sc2n1 (single isomer, unassigned) [Example 3-6] | 0.001 to 0.05 µM |
| Cc1ccc2c(N)c(C(=O)N[C@H]3COc4nc(N5C[C@H](OC(C)C)[C@@H](N)C5)ccc4C3)sc2n1 [Example 287, 3-amino-N-[(3R)-7-[(3S,4S)-3-amino-4-(propan-2-yloxy)pyrrolidin-1-yl]-2H,3H,4H-pyrano[2,3-b]pyridin-3-yl]-6-methylthieno[2,3-b]pyridine-2-carboxamide] | 0.2 to 2 µM |
| CO[C@]1(C)CN(c2ccc3c(n2)OC[C@H](NC(=O)c2sc4nc(C)ccc4c2N)C3)C[C@H]1N [Example 326, 3-amino-N-[(3R)-7-[(3R,4R)-4-amino-3-methoxy-3-methylpyrrolidin-1-yl]-2H,3H,4H-pyrano[2,3-b]pyridin-3-yl]-6-methylthieno[2,3-b]pyridine-2-carboxamide] | 0.05 to 0.2 µM |
| CO[C@H]1[C@H](N)CN(c2ccc3c(c2)OC[C@H](NC(=O)c2sc4nc(C)ccc4c2N)C3)[C@H]1C [Example 334, 3-amino-N-[(3R)-7-[(2S,3S,4R)-4-amino-3-methoxy-2-methylpyrrolidin-1-yl]-3,4-dihydro-2H-1-benzopyran-3-yl]-6-methylthieno[2,3-b]pyridine-2-carboxamide] | 0.001 to 0.05 µM |
| CCOC[C@H]1CN(c2ccc3c(c2)OC[C@H](NC(=O)c2sc4nc(C)ccc4c2N)C3)C[C@H]1N [Example 314, 3-amino-N-[(3R)-7-[(3S,4S)-3-amino-4-(ethoxymethyl)pyrrolidin-1-yl]-3,4-dihydro-2H-1-benzopyran-3-yl]-6-methylthieno[2,3-b]pyridine-2-carboxamide] | 0.001 to 0.05 µM |
| CCOC1CN(c2ccc3c(c2)OC[C@H](NC(=O)c2sc4nc(C)cc(C)c4c2N)C3)C[C@@H]1N (stereo in doubt) [Example 323, 3-amino-N-[(3R)-7-[(3S,4R)-3-amino-4-ethoxypyrrolidin-1-yl]-3,4-dihydro-2H-1-benzopyran-3-yl]-4,6-dimethylthieno[2,3-b]pyridine-2-carboxamide] | 0.001 to 0.05 µM |
| CO[C@@]12CNC[C@@H]1CN(c1ccc3c(c1)OC[C@H](NC(=O)c1sc4nc(C)ccc4c1N)C3)C2 [Example 292, N-[(3R)-7-[(3aR,6aR)-3a-methoxy-octahydropyrrolo[3,4-c]pyrrol-2-yl]-3,4-dihydro-2H-1-benzopyran-3-yl]-3-amino-6-methylthieno[2,3-b]pyridine-2-carboxamide] | 0.001 to 0.05 µM |
| CO[C@H]1[C@@H](C)N(c2ccc3c(c2)OC[C@H](NC(=O)c2sc4nc(C)ccc4c2N)C3)C[C@@H]1N [Example 336, 3-amino-N-[(3R)-7-[(2R,3R,4S)-4-amino-3-methoxy-2-methylpyrrolidin-1-yl]-3,4-dihydro-2H-1-benzopyran-3-yl]-6-methylthieno[2,3-b]pyridine-2-carboxamide] | 0.001 to 0.05 µM |
| Cc1ccc2c(N)c(C(=O)N[C@H]3CCc4nc(N5C[C@H](OC6CCC6)[C@@H](N)C5)ccc4C3)sc2n1 [Example 285, 3-amino-N-[(6S)-2-[(3S,4S)-3-amino-4-cyclobutoxypyrrolidin-1-yl]-5,6,7,8-tetrahydroquinolin-6-yl]-6-methylthieno[2,3-b]pyridine-2-carboxamide] | 0.05 to 0.2 µM |
| COC[C@H]1CN(c2nc3c(cc2F)C[C@H](NC(=O)c2sc4nc(C)ccc4c2N)CC3)C[C@H]1N (single isomer, unassigned) [Example 303] | 0.2 to 2 µM |
| CN[C@@H]1CN(c2ccc3c(n2)CC[C@H](NC(=O)c2sc4nc(C)ccc4c2N)C3)C[C@]1(C)O [Example 332, 3-amino-N-[(6S)-2-[(3S,4R)-3-hydroxy-3-methyl-4-(methylamino)pyrrolidin-1-yl]-5,6,7,8-tetrahydroquinolin-6-yl]-6-methylthieno[2,3-b]pyridine-2-carboxamide] | 0.05 to 0.2 µM |
| CN[C@H]1CN(c2ccc3c(n2)CC[C@H](NC(=O)c2sc4nc(C)ccc4c2N)C3)C[C@@]1(C)O [Example 331, 3-amino-N-[(6S)-2-[(3R,4S)-3-hydroxy-3-methyl-4-(methylamino)pyrrolidin-1-yl]-5,6,7,8-tetrahydroquinolin-6-yl]-6-methylthieno[2,3-b]pyridine-2-carboxamide] | 0.05 to 0.2 µM |
| CCO[C@H]1CN(c2ccc3c(c2)OC[C@H](NC(=O)c2sc4nc(C)cc(C)c4c2N)C3)C[C@H]1N [Example 324, 3-amino-N-[(3R)-7-[(3R,4S)-3-amino-4-ethoxypyrrolidin-1-yl]-3,4-dihydro-2H-1-benzopyran-3-yl]-4,6-dimethylthieno[2,3-b]pyridine-2-carboxamide] | 0.05 to 0.2 µM |
| COC[C@]1(C)CN(c2ccc3c(n2)CC[C@H](NC(=O)c2sc4nc(C)ccc4c2N)C3)C[C@H]1N [Example 344, 3-amino-N-[(6S)-2-[(3R,4S)-4-amino-3-(methoxymethyl)-3-methylpyrrolidin-1-yl]-5,6,7,8-tetrahydroquinolin-6-yl]-6-methylthieno[2,3-b]pyridine-2-carboxamide] | 0.05 to 0.2 µM |
| N#Cc1c(N2CC3CCC(C2)N3)cc2c(c1F)C[C@@H](NC(=O)c1cnc3c(c1)[C@@H]1C[C@@H]1CN3)CO2 [Example 264, (6aS,7aR)-N-[(3R)-6-cyano-7-{3,8-diazabicyclo[3.2.1]octan-3-yl}-5-fluoro-3,4-dihydro-2H-1-benzopyran-3-yl]-5H,6H,6aH,7H,7aH-cyclopropa[c]1,8-naphthyridine-2-carboxamide] | 0.001 to 0.05 µM |
| CO[C@H]1CN(c2ccc3c(n2)CC[C@H](NC(=O)c2sc4nc(C)cc(C)c4c2N)C3)C[C@@H]1NC(C)=O [Example 293, 3-amino-N-[(6S)-2-[(3S,4S)-3-acetamido-4-methoxypyrrolidin-1-yl]-5,6,7,8-tetrahydroquinolin-6-yl]-4,6-dimethylthieno[2,3-b]pyridine-2-carboxamide] | 0.05 to 0.2 µM |
| CCOC[C@@H]1CN(c2ccc3c(c2)OC[C@H](NC(=O)c2sc4nc(C)ccc4c2N)C3)C[C@@H]1N [Example 313, 3-amino-N-[(3R)-7-[(3R,4R)-3-amino-4-(ethoxymethyl)pyrrolidin-1-yl]-3,4-dihydro-2H-1-benzopyran-3-yl]-6-methylthieno[2,3-b]pyridine-2-carboxamide] | 0.001 to 0.05 µM |
| CO[C@H]1CN(c2ccc3c(n2)OC[C@H](NC(=O)c2sc4nc(C)cc(C)c4c2N)C3)C[C@@H]1N [Example 286, 3-amino-N-[(3R)-7-[(3S,4S)-3-amino-4-methoxypyrrolidin-1-yl]-2H,3H,4H-pyrano[2,3-b]pyridin-3-yl]-4,6-dimethylthieno[2,3-b]pyridine-2-carboxamide] | 0.05 to 0.2 µM |
| COC[C@H]1CN(c2ccc3c(c2)OC[C@H](NC(=O)c2sc4nc(C)cc(C)c4c2N)C3)C[C@H]1N [Example 276, 3-amino-N-[(3R)-7-[(3S,4S)-3-amino-4-(methoxymethyl)pyrrolidin-1-yl]-3,4-dihydro-2H-1-benzopyran-3-yl]-4,6-dimethylthieno[2,3-b]pyridine-2-carboxamide] | 0.001 to 0.05 µM |
| COC[C@@H]1CN(c2ccc3c(n2)CC[C@H](NC(=O)c2sc4nc(C)ccc4c2N)C3)C[C@H]1N [Example 328, 3-amino-N-[(6S)-2-[(3S,4R)-3-amino-4-(methoxymethyl)pyrrolidin-1-yl]-5,6,7,8-tetrahydroquinolin-6-yl]-6-methylthieno[2,3-b]pyridine-2-carboxamide] | 0.2 to 2 µM |
